“And” between values parts separate entries of the source, which are not always exact repeats. Equal entries are not always repeated.
Tests used:
C2C12 cells = test: Antagonistic action on myostatin in C2C12 cells; type: cell-based, mouse; conditions: differentiation condition 72 hours
Description: Myostatin is a protein and a member of a transforming growth factor […] superfamily, and inhibits muscle growth and differentiation. Myostatin binds activin type IIB receptor and triggers SMAD2/3-dependent signaling. Since TAZ interacts with SMAD2/3, effects of IBS008738 on the signaling of myostatin was examined (FIGS. 8A to 8C). The line in the figures is 100 μm. The line and the error bar indicate the average value and the standard error, *p<0.05, […], ***p<0.001, ns refers to not significant.
(1) C2C12 cells in which TAZ was knocked down (si TAZ) and C2C12 cells in which TAZ was not knocked down (si Cont) were grown to confluence, respectively, A stock solution of 100 μg/mL myostatin in 4 mM […] with 0.1% (w/v) BSA and a stock solution of 10 mM IBS008738 in DMSO were prepared. The cells were cultured at differentiation condition for 72 hours in a 1 mL medium with 1 μL DMSO, a 1 mL medium with 1 μL myostatin stock solution, and a 1 mL medium with 1 μL IBS008738 stock solution. As a result, muscle formation of the C2C12 cells was inhibited in the case with only myostatin, but muscle formation of the C2C12 cells was recovered in the case with myostatin and IBS008738.
(2) The fusion index of C2C12 cells in which TAZ was knocked down (si TAZ) and C2C12 cells in which TAZ was not knocked down (si Cont), after being cultured under differentiation condition for 72 hours, was analyzed.
Expression of MHC of C2C12 cells in which TAZ was knocked down (si TAZ) and C2C12 cells in which TAZ was not knocked down (si Cont), after being cultured under differentiation condition for 72 hours, was analyzed by immunoblotting. As a result, expression of MHC decreased in the case with only myostatin, whereas it recovered in the case with myostatin and IBS008738 (see FIG. 8C).

Balb/c ByJ mice = test: Suppression of dexamethasone-induced muscle atrophy; type: in vivo, mouse; conditions: 20 μL of 25 mg/mL stock intraperitoneally each day for a week; day 14
Protocol: (1) A 25 mg/mL dexamethasone stock solution in DMSO was prepared. Three Balb/c ByJ mice (6 week, female) were intraperitoneally injected with 20 μL of the dexamethasone stock solution, each day for a week. As a control group, three other individuals were injected with 20 μL of DMSO. On day 9, 11 and 13, each group of the mice was injected with a solution prepared by dissolving 0.3 μL of 10 mM IBS008738 stock solution in 100 μL PBS, on one hindlimb muscle, and with 100 μL PBS on the other hindlimb muscle. The mice were sacrificed at day 14, and the muscle tissues were fixed and stained with hematoxylin and eosin (see FIG. 8D). It was observed that the muscle fibers of the mice administered with dexamethasone were shrinked.
(2) The cross section of the muscle fibers of the individual intraperitoneally injected with dexamethasone was stained with an anti-laminin antibody and observed. […] The cross-section area of muscle fibers (500 per individual) of the three mice was measured. As a result, the area of the individual injected with IBS008738 was greater than the area of the individual injected with DMSO (see FIG. 9F). The cross-section area of muscle fibers was analyzed with Image J software.

Molecule	muscle formation of the C2C12 cells (C2C12 cells; TAZ not knocked down, 1 μL myostatin stock (100 μg/mL) and/or 1 μL 10 mM IBS008738 stock in 1 mL medium)	expression of MHC (C2C12 cells; immunoblotting)	Fusion index (C2C12 cells; siCont C2C12 cells)	Fusion index (C2C12 cells; siTAZ C2C12 cells)	muscle fibers of the mice administered with dexamethasone (Balb/c ByJ mice)
myostatin [MSTN]	inhibited	decreased	0.06 and 0.05	0.02 and 0.03 and 0.04	
C[C@@H]1C[C@H]2[C@@H]3CCC4=CC(=O)C=C[C@]4(C)[C@@]3(F)[C@@H](O)C[C@]2(C)[C@@]1(O)C(=O)CO [dexamethasone, reference compound]					shrinked

Reference: US10653672B2, “Myogenesis promotor, muscle atrophy inhibitor, medical composition and TAZ activator” (National University Corporation Tokyo Medical and Dental …, priority 2014, dated 2020)
